Values after ≈ are worked out from the molar mass of the structure shown. No end group written: not given here.
What follows are molecules tested on E. coli TOP10 (assay: microbe, parasite or virus in culture). Settings: Escherichia coli; microdilution test, E. coli TOP10 late-log phase, 5 × 10^5 cfu/mL, 150 μL, 2-fold dilutions, 26 h at 37 °C, optical density 600 nm; read-out: MIC.
Assay type: cell-based
Experimental: The potency of the peptides is evaluated based on MIC against E. coli. MIC is determined as the minimum concentration of an antimicrobial at which the growth of a target microbe is suppressed. […] The high production ratio, 5/6, and the sufficiently low MIC of AMP4 validate PepGAN’s ability to generate industry-level peptides.
The MICs of the peptides were determined using the microdilution test with some modifications. We used E. coli TOP10 (Thermo Scientific, MA, USA) in the late-log phase for this test. The colony forming unit (cfu) of E. coli was determined using optical density at 600 nm. For each peptide, we prepared 11 wells containing 150 μL of 5 × 10^5 cfu/mL of E. coli and the series of concentration of each peptide from 10 to 0.01 μg/mL (2-fold dilution for 10 times). We also prepared one well containing only 150 μL of 5 × 10^5 cfu/mL of E. coli without the peptide. Similarly, we prepared 11 wells for ampicillin in the same well-plate. We incubate the plates for 26 h at 37 °C for the growth of E. coli. To read the optical density for each well, we set the plates in a plate reader (EnSpire 2300, PerkinElmer). After shaking the plate for 10 s at 300 rpm in double-orbital motion (diameter 1 mm), we measured the optical density of each solution (600 nm).

Molecule | MIC
CC1(C)S[C@@H]2[C@H](NC(=O)[C@H](N)c3ccccc3)C(=O)N2[C@H]1C(=O)O [ampicillin] | 6.25 µg/mL (≈ 17.9 µM)

Same assay, conditions: TOP10, 26 h

Molecule | MIC
EIEYGNPGVGTDR-NH2 [AMP9NC] | >100 µg/mL
FLGPIIKTVRAVLCAIKKL-NH2 [AMP6] | 25 µg/mL
FLPAFKNVISKILKALKKKV-NH2 [AMP5] | 12.5 µg/mL
GLKKLFSKIKIIGSALKNLA-NH2 [AMP4] | 3.1 µg/mL
GLRSSVKTLLRGLLGIIKKF-NH2 [AMP3] | >100 µg/mL
IKALLALPKLAKKIAKKFLK-NH2 [AMP2] | 50 µg/mL
ILPLLKKFGKKFGKKVWKAL-NH2 [AMP1] | 25 µg/mL
KRFLPSCVRSIQNLDDALPTPEEF-NH2 [AMP8NC] | >100 µg/mL
LFTMADPIQSIEKEI-NH2 [AMP7NC] | >100 µg/mL
TLPEWDDRRVVNS-NH2 [AMP10NC] | >100 µg/mL
